According to patent publication US6534501B2, “Allosteric inhibitors of pyruvate kinase” (Allos Therapeutics, Inc., priority 1998, dated 2003):

How the values were obtained:
[1] = molecular target: T1, Human Erythrocyte Pyruvate Kinase (R-PK) (Homo sapiens, UniProt P30613); assay: PK activity assay coupled with lactate dehydrogenase (NADH oxidation at 340 nm); assay type: biochemical; settings: for IC50: stock solutions in DMSO, dose-response of FIG. 6, read-out: IC50 (R-PK inhibition)
T1 construct: The four units of human whole blood obtained from the Blood Bank; from tissue
T1 sequence (P30613 whole entry): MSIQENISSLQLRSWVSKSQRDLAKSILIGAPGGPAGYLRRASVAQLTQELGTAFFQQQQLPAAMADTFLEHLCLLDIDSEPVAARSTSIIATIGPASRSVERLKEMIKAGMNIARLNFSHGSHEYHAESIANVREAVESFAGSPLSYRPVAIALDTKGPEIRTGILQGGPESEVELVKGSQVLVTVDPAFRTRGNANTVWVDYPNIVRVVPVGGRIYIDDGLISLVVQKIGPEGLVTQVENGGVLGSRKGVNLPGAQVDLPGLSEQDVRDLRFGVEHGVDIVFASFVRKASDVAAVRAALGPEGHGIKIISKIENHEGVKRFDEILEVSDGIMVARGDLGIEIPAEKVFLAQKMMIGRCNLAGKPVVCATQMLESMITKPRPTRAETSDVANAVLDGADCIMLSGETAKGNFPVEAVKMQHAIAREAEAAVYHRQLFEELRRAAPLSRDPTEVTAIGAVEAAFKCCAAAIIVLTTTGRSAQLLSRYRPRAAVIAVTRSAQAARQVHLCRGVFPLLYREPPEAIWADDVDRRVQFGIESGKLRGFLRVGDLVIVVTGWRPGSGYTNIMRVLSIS
Description: PK activity was measured using the assay conditions that are recommended by the International Committee for Standardization in Hematology (ICSH). […] The positive cooperativity of substrate binding is clearly seen from the upward curvature in the Lineweaver plot. The experimental data were fit to the Hill equation. The derived parameters were K0.5S=2.37 mM and Hill coefficient (nH) of 1.41.
Phenlyalanine has long been known as an allosteric inhibitor of PK. […] It can be seen from FIG. 2 that an increase in the concentration of phenlyalanine results in a decreased affinity and a more pronounced sigmoidity of the substrate binding. When phenylalanine increases from 0 to 30 mM, the K0.5S increases by 2.5 folds and nH increases by 1.4 folds, respectively. To avoid fluctuations in measurement of PK parameters, all experiments reported herein and assays were performed using the same batch of preparation and under identical conditions.
PK activity is measured by coupling it with lactate dehydrogenase, which transforms pyruvate into lactate and oxidizes NADH into NAD. A reduction of oxidation of NADH is followed at 340 nm using the 96 well plate in a Spectramax spectrophotometer (Molecular Devices, Ca.).
The assay buffer (100 mM Tris pH 7.5) was prepared by dissolving TRIS 100 mM, KCl 100 mM, EDTA 0.5 mM, and 10 MM MgCl2 in deionized water. The pH of the solution was adjusted to 7.5 by adding a small amount of TRIS. The stock solution of NADH (20 mM), ADP 100 mM (neutralized), LDH 500 IU/ml and PEP 100 mM were prepared in the assay buffer. The following quantities of reagents were added to make 1 ml of assay solution.
The contents were mixed and incubated for five minutes at 37° C. Then, 50 μl of PEP was added and the absorbance changes were followed at 340 nm. The initial reaction velocity in AU/min was then calculated.
The control samples in each experiment were incubated under the same conditions as without any compound. In all cases, the experiments were begun after saturation with PEP. The percent inhibition of PK activity was calculated by subtracting the activity of the control sample from the activity in the presence of compound.
Compounds 4(1) through 4(12) thus obtained were tested.
The percent activity values presented in FIG. 5 represent an average of six independent experiments. All examined compounds were prepared as stock solutions in DMSO.
As a control for FIG. 5, the assay was performed with DMSO, but no compound.
Otherwise, the dose-response for R-PK in FIG. 5 in this Example 5 was performed as described in the above Examples.

[2] = compound concentration 0.5 mM, pH 7.5, 37° C., after saturation with PEP
[3] = compound concentration 2 mM, pH 7.5, 37° C., after saturation with PEP
[4] = phenylalanine increases from 0 to 30 mM

Compound: 2-(9-Ethyl-9H-carbazol-3-ylvinylideneamino)-1-(4-nitrobenzoate) [(5)]
- IC50 [1]: 17.4 µM

Compound: 2-phenylethyloxy-5-formylbenzoic acid [TB 32]
- % PK Inhibition [1, 2]: 48%
- % PK Inhibition [1, 3]: 77%
- % PK Inhibition ([1]; compound concentration 3 mM, pH 7.5, 37° C., after saturation with PEP): 80%

Compound: 3-(2-{1-(3-Chlorophenyl)-1(3-hydroxyphenyl)-ureido]-ethyl}-4-oxo-4H-quinazolin-3-yl)-propionic acid [(4)]
- IC50 [1]: 16.1 µM

Compound: CCCCN(Cc1c2ccccc2c(Cl)c2ccccc12)C(=O)NCC(=O)OCC [(1), [3-Butyl-3-(10-chloro-anthracen-9-ylmethyl)-ureido]-acetic acid ethyl ester]
- IC50 [1]: > 50 µM

Compound: Cc1cccc2nc3cccc(C(=O)Nc4ccccc4C(=O)O)c3nc12 [(2), 2-[(9-Methyl-phenazine-1-carbonyl)-amino]-benzoic acid]
- IC50 [1]: 8.9 µM

Compound: O=c1oc(Nc2ccc(Cl)cc2)nc2ccccc12 [(3), 2-(4-Chloro-phenylamino)-benzo[d][1,3]oxazin-4-one]
- IC50 [1]: 20.9 µM

Compound: CCc1nc2ccccc2c(=O)n1CCc1cn(COC(=O)CCl)c2ccccc12 [(6), Chloroacetic acid 3-[2-(2-ethyl-4-oxo-4H-quinazolin-3-yl)ethyl]-indol-lylmethylester]
- IC50 [1]: 12.1 µM

Compound: COC(=O)c1sc(-c2ccc(Cl)cc2)cc1NCc1ccccc1 [(7), 3-Benzylamino-5-(4-chlorophenyl)-4H-1λ^4-thiophene-2-carboxylic acid methyl ester]
- IC50 [1]: 16.9 µM

Compound: COC(=O)c1cc(Oc2ccc(C(=O)OC)cc2NC(=O)c2cc(Cl)cc(Cl)c2)cc(C(=O)OC)c1 [(8), 5-[2-(3,5-Dichlorobenzoylamino)-4-methoxycarbonyl-phenoxy]-isophtahlic acid dimethyl ester]
- IC50 [1]: 9 µM

Compound: COC(=O)c1cc(Oc2ccc(C(=O)OC)cc2NC(=O)NC2CCCCC2)cc(C(=O)OC)c1 [(9), 5-[2-(3-Cyclohexyl-ureido)-4-methoxycarbonyl-phenoxy]-isophtahlic acid dimethyl ester]
- IC50 [1]: 9.4 µM

Compound: N[C@@H](Cc1ccccc1)C(=O)O [L-Phenylalanine, reference compound]
- inhibition at 10000 µM ([1]; compound concentration 10 mM, pH 7.5, 37° C., after saturation with PEP): 15%
- inhibition at 30000 µM ([1]; compound concentration 30 mM, pH 7.5, 37° C., after saturation with PEP): 72%
- increase of Hill coefficient nH [1, 4]: 1.4 folds
- increase of K0.5S (PEP) [1, 4]: 2.5 folds

Compound: COc1ccc(OCCCCCC(=O)O)c(C=O)c1 [TB 88, 6-(2-formyl-4-methoxyphenoxy)hexanoic acid]
- inhibition at 500 µM [1, 2]: 16%
- inhibition at 2500 µM ([1]; compound concentration 2.5 mM, pH 7.5, 37° C., after saturation with PEP): 28%

Compound: Cc1ccc(OCCCCCC(=O)O)c(C=O)c1 [TB 154, 6-(2-formyl-4-methylphenoxy)hexanoic acid]
- inhibition at 500 µM [1, 2]: 19%
- inhibition at 2000 µM [1, 3]: 28%
- melting point: 97 to 99 °C

Compound: CCC(CCCCC(=O)O)Oc1ccc([N+](=O)[O-])cc1C=O (stereo not shown) [TDD 57, 6-(2-formyl-4-nitrophenoxy)octanoic Acid]
- inhibition at 500 µM [1, 2]: 36%
